Test [1] has as its target T1, MTHFD1 recombinant human enzyme (Homo sapiens, UniProt P11586).
T1 sequence (P11586 2-291 limits assumed): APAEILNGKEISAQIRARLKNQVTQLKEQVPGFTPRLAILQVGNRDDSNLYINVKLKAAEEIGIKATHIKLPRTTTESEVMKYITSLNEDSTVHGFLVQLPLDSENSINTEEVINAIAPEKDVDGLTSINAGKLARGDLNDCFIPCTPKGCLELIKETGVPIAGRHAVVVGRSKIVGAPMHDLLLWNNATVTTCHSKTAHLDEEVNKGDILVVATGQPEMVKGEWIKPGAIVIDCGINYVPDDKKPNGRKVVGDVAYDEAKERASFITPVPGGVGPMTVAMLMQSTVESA
Description: MTHFD1 inhibition assay (NAD(P)H-Glo luminescence).

The test system of another test is human CD4+ T cells. Kind of test: Human CD4+ T-cell proliferation assay (CFSE, CD3/28 beads). The following applies: read-out: Proliferation IC50.
Test [2] addresses T2, MTHFD2 recombinant human enzyme (Homo sapiens, UniProt P13995).
T2 sequence (P13995 36-350): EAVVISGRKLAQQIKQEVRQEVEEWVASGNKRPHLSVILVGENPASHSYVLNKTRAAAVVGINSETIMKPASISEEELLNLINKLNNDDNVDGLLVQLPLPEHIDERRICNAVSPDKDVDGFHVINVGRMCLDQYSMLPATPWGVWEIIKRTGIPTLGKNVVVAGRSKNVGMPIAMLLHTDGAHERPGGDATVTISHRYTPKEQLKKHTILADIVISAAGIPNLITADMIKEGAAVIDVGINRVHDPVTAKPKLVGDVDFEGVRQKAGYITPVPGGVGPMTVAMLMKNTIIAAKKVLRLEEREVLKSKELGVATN
Kind of test: MTHFD2 inhibition assay (NAD(P)H-Glo luminescence). The following applies: for MTHFD1/MTHFD2 IC50 ratio: selectivity of MTHFD2 inhibition over MTHFD1, band.

In test [3] the target is T3, human α4β2 neuronal nicotinic receptor (Homo sapiens, UniProt P17787+P43681).
T3 construct: host or cells: SH-SY5Y cells (membrane homogenates)
T3 sequence (P43681 29-627 limits assumed): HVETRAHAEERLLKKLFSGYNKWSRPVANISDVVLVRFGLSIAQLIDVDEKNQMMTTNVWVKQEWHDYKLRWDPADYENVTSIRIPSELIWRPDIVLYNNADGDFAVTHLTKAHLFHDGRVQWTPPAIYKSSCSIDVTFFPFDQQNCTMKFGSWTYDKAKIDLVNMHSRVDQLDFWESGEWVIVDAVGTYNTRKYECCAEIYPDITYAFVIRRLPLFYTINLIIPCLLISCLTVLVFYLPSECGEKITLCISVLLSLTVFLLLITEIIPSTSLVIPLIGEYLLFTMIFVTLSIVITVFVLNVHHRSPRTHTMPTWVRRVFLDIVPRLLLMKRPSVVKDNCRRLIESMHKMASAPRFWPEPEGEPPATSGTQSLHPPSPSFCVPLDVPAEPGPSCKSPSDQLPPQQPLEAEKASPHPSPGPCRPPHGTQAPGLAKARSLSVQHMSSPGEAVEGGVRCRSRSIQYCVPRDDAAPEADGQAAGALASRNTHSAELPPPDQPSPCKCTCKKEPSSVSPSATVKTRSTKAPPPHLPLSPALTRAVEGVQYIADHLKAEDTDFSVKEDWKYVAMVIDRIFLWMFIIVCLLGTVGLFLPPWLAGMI
T3 sequence (P17787 26-502): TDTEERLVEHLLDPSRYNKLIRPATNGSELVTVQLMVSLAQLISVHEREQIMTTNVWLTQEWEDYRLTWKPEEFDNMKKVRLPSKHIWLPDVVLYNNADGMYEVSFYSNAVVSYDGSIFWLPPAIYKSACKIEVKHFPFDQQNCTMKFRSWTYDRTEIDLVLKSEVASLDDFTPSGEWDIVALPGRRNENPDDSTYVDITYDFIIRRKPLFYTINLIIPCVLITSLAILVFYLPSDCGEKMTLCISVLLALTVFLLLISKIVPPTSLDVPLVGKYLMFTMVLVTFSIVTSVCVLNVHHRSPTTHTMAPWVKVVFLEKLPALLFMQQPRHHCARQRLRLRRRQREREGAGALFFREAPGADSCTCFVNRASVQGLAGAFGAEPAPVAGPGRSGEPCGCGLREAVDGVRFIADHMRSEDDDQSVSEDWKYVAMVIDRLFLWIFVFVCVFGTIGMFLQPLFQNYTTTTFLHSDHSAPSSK
Kind of test: α4β2 neuronal nicotinic receptor assay (agonist radioligand, [3H]cytisine). The class given is binding. As to the method: Cell membrane homogenates (30 μg protein) were incubated for 120 min at 4° C. with 0.6 nM [3H]cytisine in the absence or presence of the test compound in a buffer containing 50 mM Tris-HCl (pH 7.4), 120 mM NaCl, 5 mM KCl, 2.5 mM CaCl2 and 1 mM MgCl2. Nonspecific binding was determined in the presence of 10 μM nicotine bitartrate. Following incubation, the samples were filtered rapidly under vacuum through glass fiber filters (GF/B, Packard) presoaked with 0.3% PEI and rinsed several times with ice-cold 50 mM Tris-HCl using a 96-sample cell harvester (Unifilter, Packard).
The filters were dried then counted for radioactivity in a scintillation counter (Topcount, Packard) using a scintillation cocktail (Microscint 0, Packard). The results were expressed as a percent inhibition of the control radioligand specific binding. The standard reference compound was nicotine bitartrate.
A number of example compounds of formula (I) were tested to evaluate their affinity for the human α4β2 neuronal nicotinic receptor expressed in transfected SH-SY5Y cells, determined in a radioligand binding assay.

[4] abbreviates: MTHFD1 IC50, recombinant human enzyme 200 nM, NADP, band.
[5] abbreviates: transfected SH-SY5Y cell membranes, 0.6 nM [3H]cytisine, band.

12 compounds from patent publication US12662489B2 (Sitryx Therapeutics Limited, priority 2023, dated 2026) can be followed below.

Each structure is given as a SMILES string. Like-named read-outs stand apart in the source and are kept apart here. A value given as a limit tells only on which side of the number the result lay.

Description for human CD4+ T cells: Cells were incubated at room temperature for 8 minutes in a rotator in the dark. 13 mL cRPMI was added to each tube and cells were centrifuged at 500×g for 4 minutes at room temperature before pellets were resuspended in 10 mL cRPMI. Cells were counted using the Auto2000 Cellometer and AO/PI viability stain and concentration adjusted to 0.6×10^6 cells/mL in cRPMI. […] Control wells were included for flow cytometry and edge wells were filled with 200 μL 1×dPBS. Cells were incubated at 37° C., 5% CO2 for 2 days before compound treatment. […] Cells were incubated at 37° C., 5% CO2 for a further 2 days prior to flow staining and supernatant harvest.
On the final day plates were centrifuged at 500×g for 4 minutes at room temperature. 125 μL of supernatants were transferred to a V bottom 96 well polystyrene plate and stored at −80° C. Plates were gently vortexed to disrupt the cell pellets before 125 μL 1×PBS was added to each well. Plates were centrifuged at 500×g for 4 minutes at room temperature and supernatants removed from the plates by aspirating. Plates were gently vortexed and 30 μL of live/dead stain (Invitrogen, L34975) in 1×dPBS was added and incubated for 15 minutes in the dark at 4° C. […] 100 μL of flow cytometry buffer was added and plates were centrifuged at 500×g for 4 minutes before supernatants were aspirated from the plates. Wells were resuspended in 200 μL flow cytometry buffer and plates stored at 4° C. before being run on the flow cytometer.
Data was analysed using FlowJo and the compensation matrix applied to all samples. The gates were set using unstained and unstimulated samples.

As to `COC[C@H]1CN(c2cc(C)c3c4c(c(=O)oc3c2C)CN(C(=O)c2ccc(C(=O)NS(=O)(=O)N3CCCC3)c(OC3CCC3)c2)CC4)CCN1C` [Example 1, (R)-2-cyclobutoxy-4-(8-(3-(methoxymethyl)-4-methylpiperazin-1-yl)-7,10-dimethyl-5-oxo-1,3,4,5-tetrahydro-2H-chromeno[3,4-c]pyridine-3-carbonyl)-N-(pyrrolidin-1-ylsulfonyl)benzamide], the IC50 fell in the range of 100 to 1000 nM in test [1] (setting [4]), 1 to 10 nM in the test with human CD4+ T cells, 100 to 1000 nM in test [2] and 2000 to 20000 nM in test [3] (setting [5]). In test [2], the “MTHFD1/MTHFD2 IC50 ratio” value is on record as “F (<3)”.
Turning to `COC[C@H]1CN(c2cc(C)c3c4c(c(=O)oc3c2C)CN(C(=O)c2ccc(C(=O)NS(=O)(=O)N3CCCC3)c(OC3CCC3)c2F)CC4)CCN1C` [Example 3, (R)-2-cyclobutoxy-3-fluoro-4-(8-(3-(methoxymethyl)-4-methylpiperazin-1-yl)-7,10-dimethyl-5-oxo-1,3,4,5-tetrahydro-2H-chromeno[3,4-c]pyridine-3-carbonyl)-N-(pyrrolidin-1-ylsulfonyl)benzamide], the IC50 in test [1] (setting [4]) is 10 to 100 nM; in the test on human CD4+ T cells it was 1 to 10 nM; in test [2], 10 to 100 nM; in test [3] (setting [5]), 20000 to 100000 nM. Moreover, the “MTHFD1/MTHFD2 IC50 ratio” value in test [2] is on record as “F (<3)”.
As to `COC[C@H]1CN(c2cc(C)c3c4c(c(=O)oc3c2C)CN(C(=O)c2ccc(C(=O)NS(=O)(=O)N3CCCC3)c(OC3CCCC3)c2F)CC4)CCN1C` [Example 4, (R)-2-(cyclopentyloxy)-3-fluoro-4-(8-(3-(methoxymethyl)-4-methylpiperazin-1-yl)-7,10-dimethyl-5-oxo-1,3,4,5-tetrahydro-2H-chromeno[3,4-c]pyridine-3-carbonyl)-N-(pyrrolidin-1-ylsulfonyl)benzamide], the IC50 in test [1] (setting [4]) is 1 to 10 nM; with human CD4+ T cells, 1 to 10 nM; in test [2], 1 to 10 nM; in test [3] (setting [5]) it was 20000 to 100000 nM. The “MTHFD1/MTHFD2 IC50 ratio” value in test [2] is “F (<3)”.
Regarding `COC[C@H]1CN(c2ccc3c4c(c(=O)oc3c2C)CN(C(=O)c2ccc(C(=O)NS(=O)(=O)N(C)C)c(N3CCCC3)c2)CC4)CCN1C` [Example 18, (R)-N-(N,N-dimethylsulfamoyl)-4-(8-(3-(methoxymethyl)-4-methylpiperazin-1-yl)-7-methyl-5-oxo-1,3,4,5-tetrahydro-2H-chromeno[3,4-c]pyridine-3-carbonyl)-2-(pyrrolidin-1-yl)benzamide], the IC50 in test [1] (setting [4]) is 10 to 100 nM; in test [2] it was 1 to 10 nM; in test [3] (setting [5]), over 100000 nM. Besides, the “MTHFD1/MTHFD2 IC50 ratio” value in test [2] was “G (^ 3 to 9.0)”.
For `COC[C@H]1CN(c2cc(C)c3c4c(c(=O)oc3c2C)CN(C(=O)c2ccc(C(=O)NS(=O)(=O)N(C)C)c(N3CCCC3)c2)CC4)CCN1C` [Example 20, (R)-N-(N,N-dimethylsulfamoyl)-4-(8-(3-(methoxymethyl)-4-methylpiperazin-1-yl)-7,10-dimethyl-5-oxo-1,3,4,5-tetrahydro-2H-chromeno[3,4-c]pyridine-3-carbonyl)-2-(pyrrolidin-1-yl)benzamide], in that order: 1 to 10 nM, 1 to 10 nM, 2000 to 20000 nM and “G (^ 3 to 9.0)”.
Consider `COC[C@H]1CN(c2cc(C)c3c4c(c(=O)oc3c2C)CN(C(=O)c2ccc(C(=O)NS(=O)(=O)N(C)C(C)C)c(OC3CCCC3)c2F)CC4)CCN1C` [Example 24, (R)-2-(cyclopentyloxy)-3-fluoro-N-(N-isopropyl-N-methylsulfamoyl)-4-(8-(3-(methoxymethyl)-4-methylpiperazin-1-yl)-7,10-dimethyl-5-oxo-1,3,4,5-tetrahydro-2H-chromeno[3,4-c]pyridine-3-carbonyl)benzamide], for which the results for the IC50 in test [1] (setting [4]), in test [2] and in test [3] (setting [5]) were 1 to 10 nM, 1 to 10 nM and 20000 to 100000 nM, respectively. The “MTHFD1/MTHFD2 IC50 ratio” value in test [2] was “F (<3)”.
For the compound `COC[C@H]1CN(c2cc(C)c3c4c(c(=O)oc3c2C)CN(C(=O)c2ccc(C(=O)NS(=O)(=O)N(C)C(C)C)c(OC3CCC3)c2F)CC4)CCN1C` [Example 25, (R)-2-cyclobutoxy-3-fluoro-N-(N-isopropyl-N-methylsulfamoyl)-4-(8-(3-(methoxymethyl)-4-methylpiperazin-1-yl)-7,10-dimethyl-5-oxo-1,3,4,5-tetrahydro-2H-chromeno[3,4-c]pyridine-3-carbonyl)benzamide], the IC50 in test [1] (setting [4]) fell in the range of 1 to 10 nM; in test [2], 1 to 10 nM; in test [3] (setting [5]), 20000 to 100000 nM. In addition, the “MTHFD1/MTHFD2 IC50 ratio” value in test [2] is listed as “F (<3)”.
As for `COC[C@H]1CN(c2cc(C)c3c4c(c(=O)oc3c2C)CN(C(=O)c2ccc(C(=O)NS(=O)(=O)C3(C)CC3)c(N3CCCC3)c2)CC4)CCN1C` [Example 45, (R)-4-(8-(3-(methoxymethyl)-4-methylpiperazin-1-yl)-7,10-dimethyl-5-oxo-1,3,4,5-tetrahydro-2H-chromeno[3,4-c]pyridine-3-carbonyl)-N-((1-methylcyclopropyl)sulfonyl)-2-(pyrrolidin-1-yl)benzamide], the IC50 in test [1] (setting [4]) was 10 to 100 nM; in test [2], 1 to 10 nM; in test [3] (setting [5]) it was 20000 to 100000 nM. Moreover, the “MTHFD1/MTHFD2 IC50 ratio” value in test [2] is “H (>9.0 to 30)”.
In the case of `COC[C@H]1CN(c2ccc3c4c(c(=O)oc3c2C)CN(C(=O)c2ccc(C(=O)NS(=O)(=O)N3CCCC3)c(OC3CCC3)c2F)CC4)CCN1C` [Example 54, (R)-2-cyclobutoxy-3-fluoro-4-(8-(3-(methoxymethyl)-4-methylpiperazin-1-yl)-7-methyl-5-oxo-1,3,4,5-tetrahydro-2H-chromeno[3,4-c]pyridine-3-carbonyl)-N-(pyrrolidin-1-ylsulfonyl)benzamide], the IC50 in test [1] (setting [4]) is 10 to 100 nM; in the test on human CD4+ T cells it was 10 to 30 nM; in test [2], 10 to 100 nM; in test [3] (setting [5]), over 100000 nM. For the same compound, the “MTHFD1/MTHFD2 IC50 ratio” value in test [2] was “F (<3)”.
For the compound `COC[C@H]1CN(c2cc(C)c3c4c(c(=O)oc3c2C)CN(C(=O)c2ccc(C(=O)NS(=O)(=O)C3(C)CC3)c(N3CCCC3)c2F)CC4)CCN1C` [Example 69, (R)-3-fluoro-4-(8-(3-(methoxymethyl)-4-methylpiperazin-1-yl)-7,10-dimethyl-5-oxo-1,3,4,5-tetrahydro-2H-chromeno[3,4-c]pyridine-3-carbonyl)-N-((1-methylcyclopropyl)sulfonyl)-2-(pyrrolidin-1-yl)benzamide], the IC50 was 10 to 100 nM in test [1] (setting [4]), 1 to 10 nM in the test on human CD4+ T cells, 10 to 100 nM in test [2] and over 100000 nM in test [3] (setting [5]). Further, the “MTHFD1/MTHFD2 IC50 ratio” value in test [2] is recorded as “G (^ 3 to 9.0)”.
Take `COC[C@H]1CN(c2cc(C)c3c4c(c(=O)oc3c2C)CN(C(=O)c2cc(N(C)C)c(C(=O)NS(=O)(=O)N3CCCC3)cc2F)CC4)CCN1C` [Example 144, (R)-2-(dimethylamino)-5-fluoro-4-(8-(3-(methoxymethyl)-4-methylpiperazin-1-yl)-7,10-dimethyl-5-oxo-1,3,4,5-tetrahydro-2H-chromeno[3,4-c]pyridine-3-carbonyl)-N-(pyrrolidin-1-ylsulfonyl)benzamide]: the IC50 lay in the range of 100 to 1000 nM in test [1] (setting [4]), 1 to 10 nM in the test on human CD4+ T cells, 1 to 10 nM in test [2] and 20000 to 100000 nM in test [3] (setting [5]). Moreover, in test [2], the “MTHFD1/MTHFD2 IC50 ratio” value was “J (>30)”.
Regarding `Cc1c(N2CCN(C)[C@@H](C)C2)ccc2c3c(c(=O)oc12)CN(C(=O)c1ccc(NS(C)(=O)=O)c(OC(F)(F)F)c1)CC3` [Reference Example 1, reference compound], the IC50 is 100 to 1000 nM in test [1] (setting [4]); 410 nM in test [1] (MTHFD1 IC50, specific value, average of multiple repeats); 10 to 100 nM in test [2] (MTHFD2 IC50, recombinant human enzyme 40 nM, NAD+, band); 45 nM in test [2] (MTHFD2 IC50, specific value, average of multiple repeats); under 2000 nM in test [3]; under 2000 nM in test [3] (setting [5]).
